Measurements published in PubChem BioAssay (NCI).
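Five concentrations, 48 hours, 96-well plates. At the GI50, growth is halved. TGI: concentration producing complete growth inhibition.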

Experiments:
Experiment in all cases: DTP human tumour cell line panel, 48 h
[1] = system: 786-0 renal
[2] = system: OVCAR-8 ovarian
[3] = system: PC-3 prostate
[4] = system: NCI/ADR-RES ovarian
[5] = system: SF-268 CNS
[6] = system: CCRF-CEM leukemia
[7] = system: HT29 colon
[8] = system: NCI-H522 lung
[9] = system: NCI-H226 lung
[10] = system: HCT-116 colon
[11] = system: KM12 colon
[12] = system: HOP-62 NSCLC
[13] = system: MDA-MB-231 breast
[14] = system: SNB-19 CNS
[15] = system: SK-OV-3 ovarian
[16] = system: BT-549 breast
[17] = system: OVCAR-3 ovarian
[18] = system: MOLT-4 leukemia
[19] = system: SK-MEL-28 melanoma
[20] = system: A498 renal
[21] = system: SN12C renal
[22] = system: CAKI-1 renal
[23] = system: K-562 leukemia
[24] = system: NCI-H23 lung
[25] = system: IGROV1 ovarian
[26] = system: OVCAR-5 ovarian
[27] = system: MDA-MB-435
[28] = system: DU-145 prostate
[29] = system: NCI-H460 lung
[30] = system: SF-295 CNS
[31] = system: ACHN renal
[32] = system: HS 578T breast
[33] = system: RXF 393 renal
[34] = system: UO-31 renal
[35] = system: HCT-15 colon
[36] = system: A549 NSCLC
[37] = system: UACC-257 melanoma
[38] = system: SK-MEL-5 melanoma
[39] = system: SW-620 colon
[40] = system: SK-MEL-2 melanoma
[41] = system: EKVX NSCLC
[42] = system: SR leukemia
[43] = system: OVCAR-4 ovarian
[44] = system: LOX IMVI melanoma
[45] = system: U251 CNS
[46] = system: MALME-3M melanoma
[47] = system: HCC-2998 colon
[48] = system: COLO 205 colon
[49] = system: M14 melanoma
[50] = system: T-47D breast
[51] = system: TK-10 renal
[52] = system: HL-60(TB) leukemia
[53] = system: MCF7 breast
[54] = system: SNB-75 CNS
[55] = system: UACC-62 melanoma
[56] = system: SF-539 CNS
[57] = system: RPMI-8226 leukemia
[58] = system: HOP-92 NSCLC

NC(=O)c1cc(-c2ccncc2)cc(-c2ccccc2)c1N
GI50 [1]: 15.9 µM
TGI [1]: > 25 µM
GI50 [2]: 15.1 µM
TGI [2]: > 25 µM
GI50 [3]: > 22.3 µM
TGI [3]: > 25 µM
GI50 [4]: > 21 µM
TGI [4]: > 25 µM
GI50 [5]: > 25 µM
TGI [5]: > 25 µM
GI50 [6]: > 25 µM
TGI [6]: > 25 µM
GI50 [7]: > 25 µM
TGI [7]: > 25 µM
GI50 [8]: 7.68 µM
TGI [8]: > 15.8 µM
GI50 [9]: 12.7 µM
TGI [9]: > 25 µM
GI50 [10]: > 24 µM
TGI [10]: > 25 µM
GI50 [11]: > 25 µM
TGI [11]: > 25 µM
GI50 [12]: > 25 µM
TGI [12]: > 25 µM
GI50 [13]: 12.2 µM
TGI [13]: > 25 µM
GI50 [14]: > 25 µM
TGI [14]: > 25 µM
GI50 [15]: 11.5 µM
TGI [15]: > 25 µM
GI50 [16]: 22.5 µM
TGI [16]: > 25 µM
GI50 [17]: 20.5 µM
TGI [17]: > 25 µM
GI50 [18]: 20 µM
TGI [18]: > 25 µM
GI50 [19]: > 25 µM
TGI [19]: > 25 µM
GI50 [20]: 4.64 µM
TGI [20]: 21.9 µM
GI50 [21]: 12.9 µM
TGI [21]: > 25 µM
GI50 [22]: 8.34 µM
TGI [22]: > 25 µM
GI50 [23]: > 20.1 µM
TGI [23]: > 25 µM
GI50 [24]: > 25 µM
TGI [24]: > 25 µM
GI50 [25]: 9.48 µM
TGI [25]: > 25 µM
GI50 [26]: > 25 µM
TGI [26]: > 25 µM
GI50 [27]: > 25 µM
TGI [27]: > 25 µM
GI50 [28]: > 22.9 µM
TGI [28]: > 25 µM
GI50 [29]: 22.6 µM
TGI [29]: > 25 µM
GI50 [30]: > 25 µM
TGI [30]: > 25 µM
GI50 [31]: 7.4 µM
TGI [31]: > 25 µM
GI50 [32]: 6.35 µM
TGI [32]: > 23.6 µM
GI50 [33]: 5.41 µM
TGI [33]: 24.9 µM
GI50 [34]: 6.41 µM
TGI [34]: > 25 µM
GI50 [35]: 19 µM
TGI [35]: > 25 µM
GI50 [36]: > 23.2 µM
TGI [36]: > 25 µM
GI50 [37]: > 25 µM
TGI [37]: > 25 µM
GI50 [38]: 14.7 µM
TGI [38]: > 25 µM
GI50 [39]: > 25 µM
TGI [39]: > 25 µM
GI50 [40]: > 5.2 µM
TGI [40]: > 17 µM
GI50 [41]: > 20.2 µM
TGI [41]: > 25 µM
GI50 [42]: 13.5 µM
TGI [42]: > 25 µM
GI50 [43]: > 20.6 µM
TGI [43]: > 25 µM
GI50 [44]: > 22.7 µM
TGI [44]: > 25 µM
GI50 [45]: > 25 µM
TGI [45]: > 25 µM
GI50 [46]: > 25 µM
TGI [46]: > 25 µM
GI50 [47]: > 25 µM
TGI [47]: > 25 µM
GI50 [48]: 22.1 µM
TGI [48]: > 25 µM
GI50 [49]: > 25 µM
TGI [49]: > 25 µM
GI50 [50]: 9.57 µM
TGI [50]: > 25 µM
GI50 [51]: 6.43 µM
TGI [51]: > 25 µM
GI50 [52]: > 25 µM
TGI [52]: > 25 µM
GI50 [53]: > 25 µM
TGI [53]: > 25 µM
GI50 [54]: 4.76 µM
TGI [54]: 19.6 µM
GI50 [55]: > 24.1 µM
TGI [55]: > 25 µM
GI50 [56]: 10.8 µM
TGI [56]: > 25 µM
GI50 [57]: 11.6 µM
TGI [57]: > 25 µM

COc1ccc(-c2nn(-c3ccc(NC(=O)c4ccc(Cl)c(C(F)(F)F)c4)cc3)cc2-c2ccncc2)cc1Cl
GI50 [1]: 0.187 µM
TGI [1]: 0.449 µM
GI50 [2]: 2.37 µM
TGI [2]: > 100 µM
GI50 [3]: 0.669 µM
TGI [3]: > 100 µM
GI50 [4]: 2.07 µM
TGI [4]: > 100 µM
GI50 [5]: 0.896 µM
TGI [5]: > 100 µM
GI50 [6]: 0.582 µM
TGI [6]: > 100 µM
GI50 [7]: 0.337 µM
TGI [7]: 1.96 µM
GI50 [8]: 4.03 µM
TGI [8]: > 100 µM
GI50 [9]: 4.75 µM
TGI [9]: > 100 µM
GI50 [10]: 1.05 µM
TGI [10]: > 100 µM
GI50 [11]: 0.514 µM
TGI [11]: > 100 µM
GI50 [12]: 0.423 µM
TGI [12]: 4.88 µM
GI50 [13]: 0.317 µM
TGI [13]: 1.35 µM
GI50 [14]: 1.96 µM
TGI [14]: > 100 µM
GI50 [16]: 1.16 µM
TGI [16]: 96.9 µM
GI50 [17]: 1.99 µM
TGI [17]: > 100 µM
GI50 [18]: 0.388 µM
TGI [18]: > 100 µM
GI50 [19]: 2.85 µM
TGI [19]: > 100 µM
GI50 [20]: 0.237 µM
TGI [20]: 4.47 µM
GI50 [21]: 2.34 µM
TGI [21]: > 100 µM
GI50 [22]: 0.335 µM
TGI [22]: 2.08 µM
GI50 [23]: 0.706 µM
TGI [23]: > 100 µM
GI50 [24]: 2.15 µM
TGI [24]: > 100 µM
GI50 [25]: 9.68 µM
TGI [25]: > 100 µM
GI50 [26]: 1.33 µM
TGI [26]: > 100 µM
GI50 [27]: 1.16 µM
TGI [27]: > 100 µM
GI50 [28]: 4.6 µM
TGI [28]: > 100 µM
GI50 [29]: 0.441 µM
TGI [29]: > 100 µM
GI50 [30]: 0.217 µM
TGI [30]: 0.79 µM
GI50 [31]: 1.58 µM
TGI [31]: > 100 µM
GI50 [32]: 0.201 µM
TGI [32]: 0.696 µM
GI50 [58]: 1.71 µM
TGI [58]: 21.6 µM
GI50 [33]: 0.168 µM
TGI [33]: 0.489 µM
GI50 [34]: 0.566 µM
TGI [34]: > 24.7 µM
GI50 [36]: 1.81 µM
TGI [36]: > 100 µM
GI50 [37]: 4.68 µM
TGI [37]: > 94.9 µM
GI50 [38]: 1.33 µM
TGI [38]: 3.84 µM
GI50 [39]: 1.06 µM
TGI [39]: > 100 µM
GI50 [40]: 0.345 µM
TGI [40]: 1.44 µM
GI50 [41]: 1.87 µM
TGI [41]: > 100 µM
GI50 [42]: 0.316 µM
TGI [42]: > 100 µM
GI50 [43]: 2.48 µM
TGI [43]: > 100 µM
GI50 [45]: 0.408 µM
TGI [45]: 7.82 µM
GI50 [46]: 1.11 µM
GI50 [47]: 1.06 µM
TGI [47]: > 43.4 µM
GI50 [48]: 1.27 µM
TGI [48]: 3.48 µM
GI50 [49]: 0.471 µM
TGI [49]: 3.08 µM
GI50 [50]: 3.78 µM
TGI [50]: > 100 µM
GI50 [51]: 1.71 µM
TGI [51]: > 32.8 µM
GI50 [52]: 0.794 µM
TGI [52]: > 100 µM
GI50 [53]: 1.59 µM
TGI [53]: > 100 µM
GI50 [54]: 0.287 µM
TGI [54]: 6.42 µM
GI50 [55]: 1.07 µM
TGI [55]: 5.02 µM
GI50 [56]: 0.5 µM
GI50 [57]: 0.39 µM
TGI [57]: > 100 µM
